Measurements published in patent US20080261936A1, “METHODS OF REDUCING THE BODY WEIGHT OF A SUBJECT BY ADMINISTERING A FATTY ACID ESTER OF AN ESTROGEN OR ESTROGEN DERIVATIVE IN AN OIL AND COMPOSITIONS CONTAINING THE SAME” (Manhattan Pharmaceuticals, Inc., priority 2006, published 2008).
Several values for one entry are separate records, joined by “and”; a condition that tells them apart may be missing. Identical values can stand only once.

Assay: Compatibility/stability of oleoyl-estrone in oil systems (appearance/color, potency, related substances)
Type: physicochemical
Method: The compatibility of oleoyl-estrone in various oil systems was also assessed. The respective stability of oleoyl-estrone in various oils was assessed following storage at (A) 25° C./60% and relative humidity (RH), (B) 40° C./75% RH, (C) 50° C. and (D) 60° C. in canola oil, safflower oil, Captex and a 2:1 Captex: Labrafil mixture. The stability test methods include appearance/color, potency, and related substances (e.g. impurities or degradant in the oleoyl-estrone and oil mixture).

[1] = in 2:1 CAPTEX:LABRAFIL, One Week 25° C./60% RH
[2] = in 2:1 CAPTEX:LABRAFIL, One Week 40° C./75% RH
[3] = in 2:1 CAPTEX:LABRAFIL, One Week 50° C.
[4] = in 2:1 CAPTEX:LABRAFIL, One Week 60° C.
[5] = in 2:1 CAPTEX:LABRAFIL, Time Zero
[6] = in 2:1 CAPTEX:LABRAFIL, Two Weeks 25° C./60% RH
[7] = in 2:1 CAPTEX:LABRAFIL, Two Weeks 40° C./75% RH
[8] = in CANOLA, One Week 25° C./60% RH
[9] = in CANOLA, One Week 40° C./75% RH
[10] = in CANOLA, Three Weeks 25° C./60% RH
[11] = in CANOLA, Three Weeks 40° C./75% RH
[12] = in CANOLA, Two Weeks 25° C./60% RH
[13] = in CANOLA, Two Weeks 40° C./75% RH
[14] = in CAPTEX, One Week 25° C./60% RH
[15] = in CAPTEX, One Week 40° C./75% RH
[16] = in CAPTEX, Three Weeks 25° C./60% RH
[17] = in CAPTEX, Three Weeks 40° C./75% RH
[18] = in CAPTEX, Two Weeks 25° C./60% RH
[19] = in CAPTEX, Two Weeks 40° C./75% RH
[20] = in SAFFLOWER, One Week 25° C./60% RH
[21] = in SAFFLOWER, One Week 40° C./75% RH
[22] = in SAFFLOWER, Three Weeks 25° C./60% RH
[23] = in SAFFLOWER, Three Weeks 40° C./75% RH
[24] = in SAFFLOWER, Three Weeks 50° C.
[25] = in SAFFLOWER, Three Weeks 60° C.
[26] = in SAFFLOWER, Two Weeks 25° C./60% RH
[27] = in SAFFLOWER, Two Weeks 40° C./75% RH
[28] = in the mixture of Captex and Labrafil stored at 50° C. and 60° C., three weeks

With `CCCCCCCC/C=C\CCCCCCCC(=O)Oc1ccc2c(c1)CC[C@@H]1[C@@H]2CC[C@]2(C)C(=O)CC[C@@H]12` [oleoyl-estrone, [3(Z)]-3-[(1-oxo-9-octadecenyl)oxy]-estra-1,3,5(10)-trien-17-one] the “Mean Purity Assay” value [1] was 101.9%, the “Purity Assay” value [1] was 100.4% and 103.3% and the “Mean Purity Assay” value [2] was 104.4%. The “Purity Assay” value [2] was 102.2% and 106.6%, the “Mean Purity Assay” value [3] was 106.8% and the “Purity Assay” value [3] was 106.6% and 107.0%. For the same molecule, the “Mean Purity Assay” value [4] was 98.2%, the “Purity Assay” value [4] was 98.4% and 97.9% and the “Mean Purity Assay” value (in 2:1 CAPTEX:LABRAFIL, Three Weeks 25° C./60% RH) was 102.1%. The “Mean Purity Assay” value (in 2:1 CAPTEX:LABRAFIL, Three Weeks 40° C./75% RH) was 99.7%, the “Mean Purity Assay” value (in 2:1 CAPTEX:LABRAFIL, Three Weeks 50° C.) was 103.8% and the “Mean Purity Assay” value (in 2:1 CAPTEX:LABRAFIL, Three Weeks 60° C.) was 102.1%. The “Mean Purity Assay” value [5] was 104.8%, the “Purity Assay” value [5] was 105.1% and 104.9% and 103.6% and 105.2% and the “Mean Purity Assay” value [6] was 102.9%. The “Purity Assay” value [6] was 101.3% and 104.4%, the “Mean Purity Assay” value [7] was 104.5% and the “Purity Assay” value [7] was 107.3% and 101.7%. For the same molecule, the “Mean Purity Assay” value (in 2:1 CAPTEX:LABRAFIL, Two Weeks 50° C.) was 104.0%, the “Mean Purity Assay” value (in 2:1 CAPTEX:LABRAFIL, Two Weeks 60° C.) was 106.2% and the “Mean Purity Assay” value [8] was 96.5%. For the same molecule, the “Purity Assay” value [8] was 96.3% and 96.7%, the “Mean Purity Assay” value [9] was 95.8% and the “Purity Assay” value [9] was 95.2% and 96.4%. The “Mean Purity Assay” value (in CANOLA, One Week 50° C.) was 99.8%, the “Purity Assay” value (in CANOLA, One Week 50° C.) was 96.3% and 103.3% and the “Mean Purity Assay” value (in CANOLA, One Week 60° C.) was 98.2%. For the same molecule, the “Purity Assay” value (in CANOLA, One Week 60° C.) was 97.8% and 98.5%, the “Mean Purity Assay” value [10] was 96.5% and the “Purity Assay” value [10] was 95.3% and 97.7%. The “Mean Purity Assay” value [11] was 98.4%, the “Purity Assay” value [11] was 94.6% and 102.2% and the “Mean Purity Assay” value (in CANOLA, Three Weeks 50° C.) was 99.4%. The “Purity Assay” value (in CANOLA, Three Weeks 50° C.) was 100.2% and 98.5%, the “Mean Purity Assay” value (in CANOLA, Three Weeks 60° C.) was 99.8% and the “Purity Assay” value (in CANOLA, Three Weeks 60° C.) was 100.4% and 99.1%. For the same molecule, the “Mean Purity Assay” value (in CANOLA, Time Zero) was 98.1%, the “Purity Assay” value (in CANOLA, Time Zero) was 97.5% and 98.0% and 97.8% and 98.9% and the “Mean Purity Assay” value [12] was 96.4%. For the same molecule, the “Purity Assay” value [12] was 92.5% and 100.3%, the “Mean Purity Assay” value [13] was 99.0% and the “Purity Assay” value [13] was 98.2% and 99.8%. The “Mean Purity Assay” value (in CANOLA, Two Weeks 50° C.) was 98.2%, the “Purity Assay” value (in CANOLA, Two Weeks 50° C.) was 100.2% and 96.2% and the “Mean Purity Assay” value (in CANOLA, Two Weeks 60° C.) was 97.3%. The “Purity Assay” value (in CANOLA, Two Weeks 60° C.) was 96.7% and 97.9%, the “Mean Purity Assay” value [14] was 105.2% and the “Purity Assay” value [14] was 102.0% and 108.3%. For the same molecule, the “Mean Purity Assay” value [15] was 103.6%, the “Purity Assay” value [15] was 105.2% and 101.9% and the “Mean Purity Assay” value (in CAPTEX, One Week 50° C.) was 101.2%. For the same molecule, the “Purity Assay” value (in CAPTEX, One Week 50° C.) was 99.5% and 102.9%, the “Mean Purity Assay” value (in CAPTEX, One Week 60° C.) was 101.9% and the “Purity Assay” value (in CAPTEX, One Week 60° C.) was 101.5% and 102.3%. The “Mean Purity Assay” value [16] was 99.5%, the “Purity Assay” value [16] was 100.4% and 98.5% and the “Mean Purity Assay” value [17] was 99.1%. For the same molecule, the “Purity Assay” value [17] was 99.4% and 98.8%, the “Mean Purity Assay” value (in CAPTEX, Three Weeks 50° C.) was 106.5% and the “Purity Assay” value (in CAPTEX, Three Weeks 50° C.) was 107.1% and 105.9%. The “Mean Purity Assay” value (in CAPTEX, Three Weeks 60° C.) was 103.0%, the “Purity Assay” value (in CAPTEX, Three Weeks 60° C.) was 100.7% and 105.3% and the “Mean Purity Assay” value (in CAPTEX, Time Zero) was 105.4%. For the same molecule, the “Purity Assay” value (in CAPTEX, Time Zero) was 105.6% and 105.3% and 104.1% and 106.4%, the “Mean Purity Assay” value [18] was 102.8% and the “Purity Assay” value [18] was 104.8% and 100.8%. The “Mean Purity Assay” value [19] was 96.4%, the “Purity Assay” value [19] was 98.5% and 94.3% and the “Mean Purity Assay” value (in CAPTEX, Two Weeks 50° C.) was 97.9%. For the same molecule, the “Purity Assay” value (in CAPTEX, Two Weeks 50° C.) was 96.5% and 99.3%, the “Mean Purity Assay” value (in CAPTEX, Two Weeks 60° C.) was 102.4% and the “Purity Assay” value (in CAPTEX, Two Weeks 60° C.) was 105.6% and 99.1%. For the same molecule, the “Mean Purity Assay” value [20] was 99.1%, the “Purity Assay” value [20] was 99.4% and 98.7% and the “Mean Purity Assay” value [21] was 100.9%. For the same molecule, the “Purity Assay” value [21] was 102.6% and 99.2%, the “Mean Purity Assay” value (in SAFFLOWER, One Week 50° C.) was 100.7% and the “Purity Assay” value (in SAFFLOWER, One Week 50° C.) was 100.9% and 100.4%. The “Mean Purity Assay” value (in SAFFLOWER, One Week 60° C.) was 100.8%, the “Purity Assay” value (in SAFFLOWER, One Week 60° C.) was 99.5% and 102.0% and the “Mean Purity Assay” value [22] was 105.7%. For the same molecule, the “Purity Assay” value [22] was 108.1% and 103.3%, the “Mean Purity Assay” value [23] was 104.6% and the “Purity Assay” value [23] was 102.7% and 106.5%. For the same molecule, the “Mean Purity Assay” value [24] was 98.7%, the “Purity Assay” value [24] was 101.0% and 96.4% and the “Mean Purity Assay” value [25] was 105.1%. For the same molecule, the “Purity Assay” value [25] was 103.7% and 106.5%, the “Mean Purity Assay” value (in SAFFLOWER, Time Zero) was 103.8% and the “Purity Assay” value (in SAFFLOWER, Time Zero) was 102.1% and 104.8% and 104.7% and 103.5%. For the same molecule, the “Mean Purity Assay” value [26] was 101.6%, the “Purity Assay” value [26] was 105.1% and 98.1% and the “Mean Purity Assay” value [27] was 100.2%. The “Purity Assay” value [27] was 98.1% and 102.3%, the “Mean Purity Assay” value (in SAFFLOWER, Two Weeks 50° C.) was 96.7% and the “Purity Assay” value (in SAFFLOWER, Two Weeks 50° C.) was 98.3% and 95.1%. The “Mean Purity Assay” value (in SAFFLOWER, Two Weeks 60° C.) was 98.1%, the “Purity Assay” value (in SAFFLOWER, Two Weeks 60° C.) was 99.2% and 96.9% and the Degradation of oleoyl-estrone (in canola oil, safflower oil or Captex, three weeks at 25° C./60% RH, 40° C./75% RH, 50° C. and 60° C.) was “no measurable degradation”. The Degradation of oleoyl-estrone [28] was “measurable degradation” and the Levels of estrone [28] was “increased significantly”.
